Source: the supplement of paper PMC8253809

Assays:
DIPGX29 [1] = H3.3 K27M diffuse intrinsic pontine glioma line; test: EC50 (inflection of fitted growth-inhibition curve) (log10 M)
How it was run: (§1)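 EC50 and maximal response (yFin) were derived from the lowest-AICc fit, either three- or four-parameter log-logistic. The data were pooled CellTiter-Glo luminescence values, log2-transformed and normalised per plate to % activity between negative (solvent) and positive controls. Patient-derived pHGG/DIPG cell lines and astrocyte controls on 1% Geltrex-coated 384-well plates received a 10-point threefold dilution series (mean top concentration 35 μM) by pin tool, in triplicate, for 7 days (iAstro 3 days) at 37 °C, 5% CO2.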

DIPGX37 [2] = H3.3 K27M diffuse intrinsic pontine glioma line; test: as above
How it was run: as §1

DIPGX7 [3] = H3.3 K27M diffuse intrinsic pontine glioma line; test: as above
How it was run: as §1

DIPGX9 [4] = diffuse intrinsic pontine glioma line; test: as above
How it was run: as §1

HABS [5] = astrocyte control; test: as above
How it was run: as §1

HGGX2 [6] = paediatric high-grade glioma line; test: as above
How it was run: as §1

HGGX39 [7] = paediatric high-grade glioma line; test: as above
How it was run: as §1

HGGX42 [8] = H3.3 G34R paediatric high-grade glioma line; test: as above
How it was run: as §1

SUDIPGIV [9] = diffuse intrinsic pontine glioma line; test: as above
How it was run: as §1

SUDIPGVI [10] = diffuse intrinsic pontine glioma line; test: as above
How it was run: as §1

SUDIPGXIII [11] = diffuse intrinsic pontine glioma line; test: as above
How it was run: as §1

SUDIPGXIX [12] = diffuse intrinsic pontine glioma line; test: as above
How it was run: as §1

SUDIPGXVII [13] = diffuse intrinsic pontine glioma line; test: as above
How it was run: as §1

SUDIPGXXI [14] = diffuse intrinsic pontine glioma line; test: as above
How it was run: as §1

iAstro [15] = astrocyte control; test: as above
How it was run: as §1

DIPGX29 [16] = test: area under dose-response curve of % growth inhibition (log2 RLU vs DMSO / staurosporine), 1e-11 to 1e-4 M (% x log10 M); higher = more growth inhibition
How it was run: (§2)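 Cells were exposed in triplicate for 7 days (iAstro: 3 days) at 37 °C, 5% CO2 to a 10-point series of threefold dilutions with a mean top concentration of 35 μM. These were patient-derived pHGG/DIPG lines plus astrocytes, grown on 384-well plates coated with 1% Geltrex. Readout was CellTiter-Glo luminescence, log2-transformed and set per plate to % activity between solvent and positive controls, from which area under the curve was derived by trapezoid rule on a log-logistic fit or, failing that, a smoothing spline.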

DIPGX37 [17] = test: as above
How it was run: as §2

DIPGX7 [18] = test: as above
How it was run: as §2

DIPGX9 [19] = test: as above
How it was run: as §2

HABS [20] = test: as above
How it was run: as §2

HGGX2 [21] = test: as above
How it was run: as §2

HGGX39 [22] = test: as above
How it was run: as §2

HGGX42 [23] = test: as above
How it was run: as §2

HGGX6 = H3.3 G34R paediatric high-grade glioma line; test: as above
How it was run: as §2

SUDIPGIV [24] = test: as above
How it was run: as §2

SUDIPGVI [25] = test: as above
How it was run: as §2

SUDIPGXIII [26] = test: as above
How it was run: as §2

SUDIPGXIX [27] = test: as above
How it was run: as §2

SUDIPGXVII [28] = test: as above
How it was run: as §2

SUDIPGXXI [29] = test: as above
How it was run: as §2

iAstro [30] = test: as above
How it was run: as §2

Compound | EC50 (log10 M) (DIPGX29 [1]) | EC50 (log10 M) (DIPGX37 [2]) | EC50 (log10 M) (DIPGX7 [3]) | EC50 (log10 M) (DIPGX9 [4]) | EC50 (log10 M) (HABS [5]) | EC50 (log10 M) (HGGX2 [6]) | EC50 (log10 M) (HGGX39 [7]) | EC50 (log10 M) (HGGX42 [8]) | EC50 (log10 M) (SUDIPGIV [9]) | EC50 (log10 M) (SUDIPGVI [10]) | EC50 (log10 M) (SUDIPGXIII [11]) | EC50 (log10 M) (SUDIPGXIX [12]) | EC50 (log10 M) (SUDIPGXVII [13]) | EC50 (log10 M) (SUDIPGXXI [14]) | EC50 (log10 M) (iAstro [15]) | area under dose-response curve (DIPGX29 [16]) | area under dose-response curve (DIPGX37 [17]) | area under dose-response curve (DIPGX7 [18]) | area under dose-response curve (DIPGX9 [19]) | area under dose-response curve (HABS [20]) | area under dose-response curve (HGGX2 [21]) | area under dose-response curve (HGGX39 [22]) | area under dose-response curve (HGGX42 [23]) | area under dose-response curve (HGGX6) | area under dose-response curve (SUDIPGIV [24]) | area under dose-response curve (SUDIPGVI [25]) | area under dose-response curve (SUDIPGXIII [26]) | area under dose-response curve (SUDIPGXIX [27]) | area under dose-response curve (SUDIPGXVII [28]) | area under dose-response curve (SUDIPGXXI [29]) | area under dose-response curve (iAstro [30])
CC(C)(C)c1cnc(CSc2cnc(NC(=O)C3CCNCC3)s2)o1 | -6.2 | -6.21 | -5.84 | -6.71 | -6.64 | -6.28 | -6.02 | -6.48 | -6.15 | -6.37 | -5.95 | -6.11 | -6.08 | -6.91 | -6.22 | 185 | 192 | 208 | 281 | 121 | 130 | 171 | 216 | 151 | 221 | 196 | 176 | 245 | 199 | 320 | 55.9
CC(C)c1c2cc(-c3ccnc(NC4CCC(NC5CCOCC5)CC4)n3)ccc2nn1C (configuration not stated) | -6.63 | -6.77 | -6.89 | -7.17 | -7.04 | -6.63 | -6.34 | -7.07 | -6.83 | -7 | -6.79 | -7.04 | -6.93 | -7.19 | -7.45 | 222 | 225 | 270 | 283 | 135 | 198 | 189 | 252 | 210 | 256 | 252 | 249 | 278 | 263 | 319 | 91.7
CC(C)c1cc(C(=O)N2Cc3ccc(CN4CCN(C)CC4)cc3C2)c(O)cc1O | -5.68 | -6.85 | -5.07 | -6.96 | -6.06 | -6.72 | -6.08 | -5.89 | -6.68 | -5.95 | -6.14 | -6.98 | -6.44 | -6.4 | -7.01 | 189 | 264 | 125 | 281 | 215 | 145 | 218 | 131 | 92.3 | 152 | 88.8 | 111 | 230 | 164 | 256 | 88
COc1cc(F)ccc1-c1ncnc(Nc2cccc(CS(C)(=N)=O)c2)n1 (configuration not stated) | -5.41 | -5.68 | -5.15 | -5.9 | -5.83 | -5.75 | -5.23 | -6.01 | -5.38 | -5.33 | -4.98 | -5.55 | -5.15 | -5.99 | -6.51 | 109 | 128 | 143 | 195 | 104 | 100 | 82.1 | 134 | 121 | 156 | 120 | 84.4 | 156 | 109 | 226 | 57.6
Cc1ccc2nc(NCCN)c3ncc(C)n3c2c1 | -4.95 | -4.96 | -4.87 | -5.01 | -4.94 | -5.19 | -4.91 | -5 | -4.93 | -4.96 | -4.89 | -4.93 | -4.88 | -5.23 | -5.39 | 94.6 | 93.7 | 96.7 | 99.8 | 54.2 | 54.2 | 52.5 | 83.7 | 75.1 | 113 | 67 | 89.5 | 79.1 | 78.2 | 143 | 35.1
c1ccc2c(-c3cnn4cc(-c5ccc(N6CCNCC6)cc5)cnc34)ccnc2c1 | -5.73 | -5.65 | -5.63 | -5.68 | -5.19 | -5.78 | -5.65 | -5.68 | -5.52 | -5.58 | -5.56 | -5.66 | -5.61 | -6.41 | -5.51 | 165 | 163 | 183 | 202 | 129 | 185 | 147 | 171 | 146 | 171 | 166 | 162 | 187 | 172 | 291 | 137
COc1ccc(C[C@H](NC(=O)[C@H](C)NC(=O)CN2CCOCC2)C(=O)N[C@@H](Cc2ccccc2)C(=O)C2(C)CO2)cc1 (stereo in doubt) [ONX-0914] | -6.14 | -6.53 | -6.25 | -6.6 | -6.19 | -7.17 | -6.36 | -6.73 | -6.84 | -6.72 | -6.56 | -6.58 | -5.91 | -7.49 | -7.31 | 156 | 242 | 220 | 252 | 206 | 277 | 209 | 186 | 182 | 255 | 233 | 230 | 245 | 175 | 328 | 243
CN(C)C/C=C/C(=O)Nc1cc2c(Nc3ccc(F)c(Cl)c3)ncnc2cc1O[C@H]1CCOC1 [AFATINIB] | -4.73 | -4.72 | -4.85 | -4.88 | -4.84 | -4.92 | -4.73 | -4.86 | -4.82 | -4.84 | -4.71 | -4.83 | -4.81 | -5.4 | -4.88 | 110 | 116 | 108 | 144 | 102 | 115 | 99.2 | 108 | 86.1 | 90.9 | 130 | 85.6 | 123 | 87.7 | 168 | 80.2
O=C(Nc1c[nH]nc1-c1nc2ccc(CN3CCOCC3)cc2[nH]1)NC1CC1 [AT9283] | -5.17 | -4.79 | -4.88 | -5.66 | -5.83 | -4.91 | -6.03 | -5.4 | -5.66 | -4.97 | -4.79 | -5.33 | -4.95 | -6.69 | -5.54 | 150 | 132 | 143 | 203 | 173 | 87.8 | 186 | 178 | 134 | 167 | 97.6 | 77.4 | 184 | 128 | 310 | 42.3
CC(=O)OC[C@H]1O[C@@H]([S-])[C@H](OC(C)=O)[C@@H](OC(C)=O)[C@@H]1OC(C)=O.CCP(CC)CC.[Au+] [AURANOFIN] | -6.49 | -6.41 | -5.9 | -5.78 | -5.29 | -6.28 | -5.52 | -6.16 | -5.57 | -5.76 | -5.39 | -5.93 | -5.45 | -6.66 | -5.84 | 232 | 219 | 228 | 209 | 146 | 248 | 165 | 243 | 218 | 198 | 202 | 168 | 219 | 169 | 323 | 196
COC(=O)[C@]12CCC(C)(C)C[C@H]1[C@H]1C(=O)C=C3[C@@]4(C)C=C(C#N)C(=O)C(C)(C)[C@@H]4CC[C@@]3(C)[C@]1(C)CC2 [BARDOXOLONE METHYL] | -6.17 | -6.09 | -5.56 | -5.73 | -5.66 | -5.74 | -6.01 | -5.83 | -5.65 | -5.63 | -5.62 | -5.53 | -5.59 | -6.24 | -5.99 | 189 | 185 | 221 | 185 | 174 | 181 | 185 | 203 | 168 | 201 | 155 | 155 | 207 | 173 | 231 | 189
CC(C)(C)OC(=O)Nc1ccc(-c2cc(C(=O)NCCCCCCC(=O)NO)no2)cc1 [BML-281] | -5.53 | -5.46 | -4.92 | -5.48 | -4.89 | -5.43 | -4.94 | -5.45 | -5.19 | -4.92 | -4.89 | -5 | -5.09 | -6.1 | -5.37 | 85.5 | 56.6 | 111 | 146 | 83.1 | 92 | 94.4 | 49 | 55.5 | 104 | 65.9 | 54.5 | 87.7 | 63.9 | 212 | 61.4
